In ChEMBL document CHEMBL1158581, “Synthesis and evaluation of new N6-substituted adenosine-5'-N-methylcarboxamides as A3 adenosine receptor agonists” (Bioorg Med Chem, 2010):
The source made the active and inactive calls. The calls are words filed in the database; no cut-off is given here.

Legend:
Adenosine receptor A3 [1] = target: T1, Adenosine receptor A3 (Homo sapiens, UniProt P0DMS8); assay: Displacement of [125I]ABA from human recombinant adenosine A3 receptor by rapid filtration technique
T1 sequence (P0DMS8 whole entry): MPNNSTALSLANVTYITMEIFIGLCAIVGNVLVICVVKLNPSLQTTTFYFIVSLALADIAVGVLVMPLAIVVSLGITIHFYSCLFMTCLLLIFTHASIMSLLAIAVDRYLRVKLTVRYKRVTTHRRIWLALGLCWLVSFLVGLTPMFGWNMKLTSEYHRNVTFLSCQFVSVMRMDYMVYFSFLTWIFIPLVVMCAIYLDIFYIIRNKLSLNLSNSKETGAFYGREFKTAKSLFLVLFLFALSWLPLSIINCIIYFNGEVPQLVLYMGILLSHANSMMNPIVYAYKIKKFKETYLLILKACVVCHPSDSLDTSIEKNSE

Adenosine receptor A1 = target: T2, Adenosine receptor A1 (Homo sapiens, UniProt P30542); assay: Displacement of [125I]ABA from human recombinant adenosine A1 receptor by rapid filtration technique
T2 sequence (P30542 whole entry): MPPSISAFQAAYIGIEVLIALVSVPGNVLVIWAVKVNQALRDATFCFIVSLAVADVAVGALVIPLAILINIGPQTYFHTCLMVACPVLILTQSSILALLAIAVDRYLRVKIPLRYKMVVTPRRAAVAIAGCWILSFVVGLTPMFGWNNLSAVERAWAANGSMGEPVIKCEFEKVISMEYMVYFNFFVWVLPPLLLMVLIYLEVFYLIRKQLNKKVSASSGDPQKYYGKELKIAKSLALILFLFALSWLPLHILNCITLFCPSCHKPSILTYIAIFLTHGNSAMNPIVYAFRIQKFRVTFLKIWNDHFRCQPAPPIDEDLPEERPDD

[2] = target: Adenosine receptors; A1 & A3 (Homo sapiens) (UniProt P30542+P0DMS8); assay: Selectivity ratio of Ki for human recombinant adenosine A1 receptor to Ki for human recombinant adenosine A3 receptor
Adenosine receptor A2a [3] = target: T3, Adenosine receptor A2a (Homo sapiens, UniProt P29274); assay: Displacement of [3H]ZM241385 from human recombinant adenosine A2A receptor by rapid filtration technique
Adenosine receptor A3 [4] = target: T1, Adenosine receptor A3; assay: Binding affinity to adenosine A3 receptor
[5] = Selectivity ratio of Ki for adenosine A1 receptor to Ki for adenosine A3 receptor
H9c2 [6] = assay: Cardioprotective effect against hypoxic simulated ischemia in rat H9c2 cells assessed as reduction in cell death at 100 nM after 12 hrs by propidium iodide staining-based inverted microscopy; type: functional; conditions: for inhibition at 0.1 µM: H9c2, 12 h
H9c2 [7] = assay: Cardioprotective effect against hypoxic simulated ischemia in rat H9c2 cells assessed as reduction in cell death at 10 nM after 12 hrs by propidium iodide staining-based inverted microscopy; type: functional
H9c2 [8] = assay: Cardioprotective effect against hypoxic simulated ischemia in rat H9c2 cells assessed as reduction in cell death at 100 nM after 12 hrs by propidium iodide staining-based inverted microscopy in presence of adenosine A3 receptor antagonist MRS-1191; type: functional
Adenosine receptor A2a [9] = target: T3, Adenosine receptor A2a; assay: Displacement of [3H]ZM241385 from human recombinant adenosine A2A receptor at 10 uM by rapid filtration technique

T3 sequence (P29274 whole entry): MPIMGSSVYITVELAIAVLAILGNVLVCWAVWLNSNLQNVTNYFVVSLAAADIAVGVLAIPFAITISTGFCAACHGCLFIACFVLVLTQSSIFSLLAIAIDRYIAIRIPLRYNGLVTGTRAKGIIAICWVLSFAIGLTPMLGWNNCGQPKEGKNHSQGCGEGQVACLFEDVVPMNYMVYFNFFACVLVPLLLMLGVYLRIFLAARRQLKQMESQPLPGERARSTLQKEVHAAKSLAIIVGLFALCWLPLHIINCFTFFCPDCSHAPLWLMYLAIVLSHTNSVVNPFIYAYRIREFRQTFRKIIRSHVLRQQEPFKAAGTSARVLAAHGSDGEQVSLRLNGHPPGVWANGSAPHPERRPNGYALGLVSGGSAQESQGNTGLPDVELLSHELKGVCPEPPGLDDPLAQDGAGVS

Row | Ki (Adenosine receptor A3 [1]) [nM] | Ki (Adenosine receptor A1) [nM] | Ratio Ki [2] | Ki (Adenosine receptor A2a [3]) [µM] | inhibition (Adenosine receptor A2a [9]) [%] | Compound | Ki (Adenosine receptor A3 [4]) [nM] | Ratio Ki [5] | inhibition (H9c2 [6]) | inhibition (H9c2 [7]) | inhibition (H9c2 [8]) | inhibition at 0.1 µM (H9c2 [6]) [%]
1 | 9 | 620 | 69 | > 10 | – | CNC(=O)[C@H]1O[C@@H](n2cnc3c(NCCc4cc(C(C)(C)C)c(O)c(C(C)(C)C)c4)ncnc32)[C@H](O)[C@@H]1O | – | – | – | – | – | –
2 | – | – | – | – | – | CC1(C)c2ccc(C(=O)NCCc3ccc(Nc4ncnc5c4ncn5[C@@H]4O[C@H](CO)[C@@H](O)[C@H]4O)cc3)cc2C(C)(C)N1[O] | 7 | 3 | – | – | – | –
3 | 5.63 | 105 | 19 | > 10 | – | CNC(=O)[C@H]1O[C@@H](n2cnc3c(NCc4ccc(CNC(=O)c5cc(C(C)(C)C)c(O)c(C(C)(C)C)c5)cc4)ncnc32)[C@H](O)[C@@H]1O | – | – | Active | inactive | inactive | –
4 | 4.26 | 26.2 | 6.2 | – | 27 | CNC(=O)[C@H]1O[C@@H](n2cnc3c(Nc4ccc(CCNC(=O)c5cc(OC)c(OC)c(OC)c5)cc4)ncnc32)[C@H](O)[C@@H]1O | – | – | Active | inactive | inactive | –
5 | – | – | 0.063 | – | – | CC1(C)CC(NC2NC=Nc3c2ncn3[C@@H]2O[C@H](CO)[C@@H](O)[C@H]2O)CC(C)(C)N1 (stereo partly drawn) | – | – | – | – | – | –
6 | 9.02 | 128 | 14 | > 10 | – | CNC(=O)[C@H]1O[C@@H](n2cnc3c(NCc4ccc(CNC(=O)c5cc(C(C)(C)C)cc(C(C)(C)C)c5)cc4)ncnc32)[C@H](O)[C@@H]1O | – | – | – | inactive | inactive | 68.3
7 | 2.25 | 245 | 109 | > 10 | – | CNC(=O)[C@H]1O[C@@H](n2cnc3c(Nc4ccc(CCNC(=O)c5cc(C(C)(C)C)cc(C(C)(C)C)c5)cc4)ncnc32)[C@H](O)[C@@H]1O | – | – | Active | inactive | inactive | –
8 | 30 | 150 | 5 | – | 20 | CC(C)(C)c1cc(CCNc2ncnc3c2ncn3[C@@H]2O[C@H](CO)[C@@H](O)[C@H]2O)cc(C(C)(C)C)c1O | – | – | – | – | – | –
9 | – | – | – | – | – | CNC(=O)[C@H]1O[C@@H](n2cnc3c(NCc4cccc(I)c4)ncnc32)[C@H](O)[C@@H]1O [IB-MECA] | – | – | Active | inactive | inactive | 54.1
10 | 2.22 | 42.1 | 19 | > 10 | – | CNC(=O)[C@H]1O[C@@H](n2cnc3c(NCc4ccc(NC(=O)CCC(=O)NCCc5cc(C(C)(C)C)c(O)c(C(C)(C)C)c5)cc4)ncnc32)[C@H](O)[C@@H]1O | – | – | – | – | – | –
11 | 45 | 243 | 5.4 | > 10 | – | CNC(=O)[C@H]1O[C@@H](n2cnc3c(Nc4ccc(CCNC(=O)c5cc(C(C)(C)C)c(O)c(C(C)(C)C)c5)cc4)ncnc32)[C@H](O)[C@@H]1O | – | – | – | – | – | –
12 | 70 | 1170 | 16 | > 10 | – | CNC(=O)[C@H]1O[C@@H](n2cnc3c(Nc4ccc5c(c4)C(C)(C)NC5(C)C)ncnc32)[C@H](O)[C@@H]1O | – | – | – | – | – | –
13 | 280 | 290 | 1 | > 10 | – | CC1(C)NC(C)(C)c2cc(Nc3ncnc4c3ncn4[C@@H]3O[C@H](CO)[C@@H](O)[C@H]3O)ccc21 | – | – | – | – | – | –
14 | 2480 | 960 | 0.39 | > 10 | – | CNC(=O)[C@H]1O[C@@H](n2cnc3c(NC4CC(C)(C)NC(C)(C)C4)ncnc32)[C@H](O)[C@@H]1O | – | – | – | – | – | –
15 | 5.04 | 76.8 | 15 | > 10 | – | CNC(=O)[C@H]1O[C@@H](n2cnc3c(NCc4ccc(CNC(=O)c5cc(OC)c(OC)c(OC)c5)cc4)ncnc32)[C@H](O)[C@@H]1O | – | – | Active | inactive | inactive | –

Row | Compound | Ki (Adenosine receptor A3 [1]) [nM] | Ki (Adenosine receptor A1) [nM] | Ratio Ki [2] | Ki (Adenosine receptor A2a [3]) [µM] | inhibition (Adenosine receptor A2a [9]) [%] | Ki (Adenosine receptor A3 [4]) [nM] | Ratio Ki [5] | inhibition (H9c2 [6]) | inhibition (H9c2 [7]) | inhibition (H9c2 [8]) | inhibition at 0.1 µM (H9c2 [6]) [%]
16 | CNC(=O)[C@H]1O[C@@H](n2cnc3c(Nc4ccc5c(c4)C(C)(C)N([O])C5(C)C)ncnc32)[C@H](O)[C@@H]1O | 530 | 800 | 1.5 | > 10 | – | – | – | – | – | – | –
17 | CNC(=O)[C@H]1O[C@@H](n2cnc3c(Nc4ccc(CCNC(=O)c5ccc6c(c5)C(C)(C)N([O])C6(C)C)cc4)ncnc32)[C@H](O)[C@@H]1O | 25 | 53.1 | 2.1 | > 10 | – | – | – | – | – | – | –
18 | CNC(=O)[C@H]1O[C@@H](n2cnc3c(NCc4ccc5c(c4)C(C)(C)N([O])C5(C)C)ncnc32)[C@H](O)[C@@H]1O | 320 | 1290 | 4 | > 10 | – | – | – | – | – | – | –
19 | CC1(C)c2ccc(NC3NC=Nc4c3ncn4[C@@H]3O[C@H](CO)[C@@H](O)[C@H]3O)cc2C(C)(C)N1[O] (stereo partly drawn) | – | – | – | > 10 | – | – | – | – | – | – | –
20 | CC1(C)c2ccc(CNC3NC=Nc4c3ncn4[C@@H]3O[C@H](CO)[C@@H](O)[C@H]3O)cc2C(C)(C)N1[O] (stereo partly drawn) | 280 | 1140 | 4.1 | > 10 | – | – | – | – | – | – | –
21 | CC1(C)CC(CNc2ncnc3c2ncn3[C@@H]2O[C@H](CO)[C@@H](O)[C@H]2O)C(C)(C)N1[O] (stereo partly drawn) | – | – | 0.0024 | > 10 | – | 50 | 400 | – | – | – | –
22 | CC1(C)CC(NC2NC=Nc3c2ncn3[C@@H]2O[C@H](CO)[C@@H](O)[C@H]2O)CC(C)(C)N1[O] (stereo partly drawn) | 8560 | 50 | 0.0058 | > 10 | – | – | – | – | – | – | –
23 | CNC(=O)[C@H]1O[C@@H](n2cnc3c(NC4CC(C)(C)N([O])C(C)(C)C4)ncnc32)[C@H](O)[C@@H]1O | 4160 | 1890 | 0.45 | > 10 | – | – | – | – | – | – | –
24 | CNC(=O)[C@H]1O[C@@H](n2cnc3c(NCC4CC(C)(C)N([O])C4(C)C)ncnc32)[C@H](O)[C@@H]1O (stereo partly drawn) | 1020 | 570 | 0.56 | > 10 | – | – | – | – | – | – | –
